From US11583538B2, “Substituted pyrrolo[1,2-a]pyrazines and pyrrolo[1,2-a][1,4]diazepines as TREX1 inhibitors” (Venenum Biodesign, LLC, priority 2019, dated 2023) come the findings set out here.

A value given as a limit tells only on which side of the number the result lay.

human TREX1, sequence (Q9NSU2 whole entry, the tested form may be a part): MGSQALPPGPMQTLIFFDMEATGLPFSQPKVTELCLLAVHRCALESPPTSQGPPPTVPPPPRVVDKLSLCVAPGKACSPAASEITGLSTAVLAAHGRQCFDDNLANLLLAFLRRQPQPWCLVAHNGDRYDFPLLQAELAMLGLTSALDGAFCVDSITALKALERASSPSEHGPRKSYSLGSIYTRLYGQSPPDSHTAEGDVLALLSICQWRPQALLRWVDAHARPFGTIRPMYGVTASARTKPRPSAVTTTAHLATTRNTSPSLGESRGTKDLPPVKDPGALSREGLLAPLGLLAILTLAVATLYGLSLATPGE

The target in this assay is human TREX1 (Homo sapiens (Human), UniProt Q9NSU2). Kind of assay: TREX1 Exonuclease Assay. Type of assay: biochemical. The method, then:
For human TREX1, the nucleotide sequence of the gene construct was codon optimized for expression in the bacterial host. The sequence was incorporated into the pMAL-c5e vector (NEB) downstream of a solubility-promoting MBP (maltose binding protein) fusion partner. The fusion protein product was expressed in E. coli strain BL21 (DE3) (Millipore) and purified in a series of chromatographic steps. Initial steps were conducted using a dextrin sepharose affinity column followed by a Q-sepharose ion exchange column (both GE Healthcare). After the second column the MBP partner was removed by incubation with enterokinase (NEB). Further purification was carried out with the second application of a Q-sepharose column followed by a Superdex 75 (GE Healthcare) size exclusion column. Finally, a heparin sepharose column (GE Healthcare) was applied to remove contaminating nucleotides.
To evaluate the effect of compounds on TREX1 activity, test compounds were serially diluted (11-point, 3-fold) from 10 mM stock solutions and delivered to 384-well low-volume assay plates in 80 nL DMSO using an acoustic dispenser. Next, 4 μL of human TREX1 (0.5 nM), or murine TREX1 (1 nM), diluted in assay buffer (20 mM Tris pH 7.5, 5 mM MgCl2, 100 μg/mL BSA, 0.002% Triton X-100, 2 mM DTT), was added to the assay plate. After incubating for 30 minutes, 4 μL of labeled DNA oligonucleotide (500 nM) in assay buffer was added to initiate TREX1 exonuclease activity. The reaction was allowed to proceed for 45 minutes at room temperature prior to the addition of 4 μL of 150 mM EDTA to halt TREX1 activity.
With `N[C@@H]1C[C@H]2C(=O)N([C@H](CCC(=O)O)C(=O)N3CCC[C@H]3c3ccc(Cl)c(Cl)c3)CCC(CCc3ccccc3)N2C1` (stereo partly shown) [Example 27], the concentration for half-maximal inhibition (IC50) is less than 1000 nM.

In the case of `CN(Cc1ccc(Cl)c(Cl)c1)C(=O)[C@@H](CC#N)N1CCC(CCc2ccccc2)N2C[C@H](N)C[C@H]2C1=O` (stereo partly shown) [Example 65], the IC50 is less than 1000 nM. The same measure for `Cn1c(Cl)ccc(CNC(=O)[C@@H](CCC(=O)O)N2CCC(CCc3ccccc3)N3C[C@H](N)C[C@H]3C2=O)c1=O` (stereo partly shown) [Example 37]: less than 1000 nM. The same measure for `N#CC[C@H](C(=O)NCc1ccc(Cl)c(Cl)n1)N1CCC(CCc2ccccc2)N2C[C@H](N)C[C@H]2C1=O` (stereo partly shown) [Example 113]: less than 1000 nM; for `N[C@@H]1C[C@H]2C(=O)N([C@H](CCC(=O)NO)C(=O)NCc3ccc(Cl)c(Cl)c3)CCC(COc3ccc(F)cc3)N2C1` (stereo partly shown) [Example 115]: less than 1000 nM. The same measure for `N[C@@H]1C[C@H]2C(=O)N([C@H](CCC(=O)O)C(=O)NCc3ccc(Cl)cn3)CCC(CCc3ccccc3)N2C1` (stereo partly drawn) [Example 70, (4R)-4-((8R,9aS)-8-amino-1-oxo-5-phenethylhexahydro-1H-pyrrolo[1,2-a][1,4]diazepin-2(3H)-yl)-5-(((5-chloropyridin-2-yl)methyl)amino)-5-oxopentanoic Acid]: less than 1000 nM. Molecule `N[C@@H]1C[C@H]2C(=O)N([C@H](CCC(=O)O)C(=O)NCc3cc(Cl)c(Cl)cc3F)CCC(CCc3ccccc3)N2C1` (stereo partly shown) [Example 31] had an IC50 of less than 1000 nM.

The molecule `N[C@@H]1C[C@H]2C(=O)N([C@H]3CCCN(Cc4ccc(Cl)c(Cl)c4)C3=O)CCC(CCc3ccccc3)N2C1` (stereo partly shown) [Example 34] yielded an IC50 of less than 1000 nM. The same measure for `CCOC(=O)CC[C@H](C(=O)NCc1ccc(Cl)c(Cl)c1)N1CCC(CCc2ccccc2)N2C[C@H](NC(=O)OCC)C[C@H]2C1=O` (stereo partly shown) [Example 145]: 10000 to 100000 nM. As for `CC(C)C[C@H](C(=O)NCc1cccc(Cl)c1)N1CCC(CCc2ccccc2)N2C[C@H](N)C[C@H]2C1=O` (stereo partly shown) [Example 43], the half-inhibitory concentration (IC50) fell in the range of 1000 to 9990 nM. Under `N[C@@H]1C[C@H]2C(=O)N([C@H](CCC(=O)O)C(=O)NCc3cc(Cl)c(Cl)cn3)CCC(CCc3ccccc3)N2C1` (stereo partly shown) [Example 28] stands less than 1000 nM; under `CC(C)Oc1c(CNC(=O)[C@@H](CCC#N)N2CCC(CCc3ccccc3)N3C[C@H](N)C[C@H]3C2=O)ccc(Cl)c1Cl` (stereo partly shown) [Example 141], less than 1000 nM; under `CCOC(=O)N[C@@H]1C[C@H]2C(=O)N([C@H](CCC(=O)O)C(=O)NCc3ccc(Cl)c(Cl)c3)CCC(CCc3ccccc3)N2C1` (stereo partly shown) [Example 143], 10000 to 100000 nM. The same measure for `Cc1nnc(CC[C@H](C(=O)NCc2ccc(Cl)c(Cl)c2F)N2CCC(CCc3ccccc3)N3C[C@H](N)C[C@H]3C2=O)[nH]1` (stereo partly shown) [Example 140]: less than 1000 nM; for `CC(C)C[C@H](C(=O)NCc1ccc(Cl)cc1Cl)N1CCC(CCc2ccccc2)N2C[C@H](N)C[C@H]2C1=O` (stereo partly shown) [Example 48]: 1000 to 9990 nM. The same measure for `CC(=O)NCC[C@H](C(=O)NCc1ccc(Cl)c(Cl)c1)N1CCC(CCc2ccccc2)N2C[C@H](N)C[C@H]2C1=O` (stereo partly shown) [Example 131]: less than 1000 nM; for `CC(C)C[C@H](C(=O)NCc1ccc(C#N)cc1)N1CCC(CCc2ccccc2)N2C[C@H](N)C[C@H]2C1=O` (stereo partly shown) [Example 49]: less than 1000 nM. Molecule `N=C(N)NCCC[C@H](C(=O)NCc1ccc(Cl)c(Cl)c1)N1CCC(CCc2ccccc2)N2C[C@H](N)C[C@H]2C1=O` (stereo partly shown) [Example 24] showed an IC50 of less than 1000 nM. Under `N[C@@H]1C[C@H]2C(=O)N([C@H](CCC(=O)O)C(=O)N3CCOC[C@H]3c3ccc(Cl)c(Cl)c3)CCC(CCc3ccccc3)N2C1` (stereo partly shown) [Example 32] stands less than 1000 nM; under `N#CC[C@H](C(=O)NCc1ccc(Cl)c(C(F)(F)F)c1)N1CCC(CCc2ccccc2)N2C[C@H](N)C[C@H]2C1=O` (stereo partly shown) [Example 64], less than 1000 nM; under `CC(C)Oc1c(CNC(=O)[C@@H](CCc2nnn[nH]2)N2CCC(CCc3ccccc3)N3C[C@H](N)C[C@H]3C2=O)ccc(Cl)c1Cl` (stereo partly shown) [Example 144], less than 1000 nM.

With `CC(C)C[C@H](C(=O)NCc1ccccc1Cl)N1CCC(CCc2ccccc2)N2C[C@H](N)C[C@H]2C1=O` (stereo partly shown) [Example 44], the half-inhibitory concentration (IC50) is less than 1000 nM. The same measure for `N#CC[C@H](C(=O)N1CCOC[C@H]1c1ccccc1)N1CCC(CCc2ccccc2)N2C[C@H](N)C[C@H]2C1=O` (stereo partly shown) [Example 69]: 1000 to 9990 nM.

In turn, `N[C@@H]1C[C@H]2C(=O)N([C@H](CCC(=O)O)C(=O)NCc3ccc(Cl)c(Cl)n3)CCC(CCc3ccccc3)N2C1` (stereo partly shown) [Example 25] had an IC50 of less than 1000 nM. Under `CCOC(=O)CC[C@H](C(=O)NCc1ccc(Cl)c(Cl)c1)N1CCC(CCc2ccccc2)N2C[C@H](N)C[C@H]2C1=O` (stereo partly drawn) [Example 89, (4R)-ethyl 4-((8R,9aS)-8-amino-1-oxo-5-phenethylhexahydro-1H-pyrrolo[1,2-a][1,4]diazepin-2(3H)-yl)-5-((3,4-dichlorobenzyl)amino)-5-oxopentanoate] stands less than 1000 nM; under `N[C@@H]1C[C@H]2C(=O)N([C@H](CCC(=O)O)C(=O)NCc3ccc(Cl)c(Cl)c3)CCC(COc3cnccn3)N2C1` (stereo partly shown) [Example 80], 1000 to 9990 nM. The same measure for `N[C@@H]1C[C@H]2C(=O)N([C@H](CCC(=O)O)C(=O)NCc3ccc(Cl)c(Cl)c3)CCC(COc3ccc(Cl)cc3)N2C1` (stereo partly shown) [Example 74]: less than 1000 nM; for `N[C@@H]1C[C@H]2C(=O)N([C@H](CCC(=O)O)C(=O)NCc3ccc(Cl)c(C(F)(F)F)c3)CCC(CCc3ccccc3)N2C1` (stereo partly shown) [Example 146]: less than 1000 nM. The molecule `N[C@@H]1C[C@H]2C(=O)N(c3cccn(Cc4ccc(Cl)c(Cl)c4)c3=O)CCC(CCc3ccccc3)N2C1` (stereo partly shown) [Example 38] displayed an IC50 of less than 1000 nM. Under `CC(C)C[C@H](C(=O)NCc1ccc(Cl)c(F)c1)N1CCC(CCc2ccccc2)N2C[C@H](N)C[C@H]2C1=O` (stereo partly shown) [Example 54] stands less than 1000 nM; under `CC(C)OC(=O)CC[C@H](C(=O)NCc1ccc(Cl)c(Cl)c1)N1CCC(CCc2ccccc2)N2C[C@H](N)C[C@H]2C1=O` (stereo partly shown) [Example 92], less than 1000 nM. On to `Cc1ccc(CNC(=O)[C@@H](CC(C)C)N2CCC(CCc3ccccc3)N3C[C@H](N)C[C@H]3C2=O)cc1Cl` (stereo partly shown) [Example 57], for which the IC50 was less than 1000 nM. Under `N[C@@H]1C[C@H]2C(=O)N([C@H](CCNS(=O)(=O)C3CC3)C(=O)NCc3ccc(Cl)c(Cl)c3)CCC(CCc3ccccc3)N2C1` (stereo partly shown) [Example 133] stands less than 1000 nM.

On to `N#CC[C@H](C(=O)N1CCc2c(ccc(Cl)c2Cl)C1)N1CCC(CCc2ccccc2)N2C[C@H](N)C[C@H]2C1=O` (stereo partly shown) [Example 67], for which the half-inhibitory concentration (IC50) is 1000 to 9990 nM.

The molecule `CC(C)C[C@H](C(=O)NCc1cc(Cl)cc(Cl)c1)N1CCC(CCc2ccccc2)N2C[C@H](N)C[C@H]2C1=O` (stereo partly shown) [Example 50] yielded a concentration for half-maximal inhibition (IC50) of 1000 to 9990 nM.

On to `COc1cc(Cl)c(Cl)cc1CNC(=O)[C@@H](CCC(=O)O)N1CCC(CCc2ccccc2)N2C[C@H](N)C[C@H]2C1=O` (stereo partly shown) [Example 21], for which the 50% inhibitory concentration (IC50) is less than 1000 nM. Under `CCN(CC)C(=O)COC(=O)CC[C@H](C(=O)NCc1ccc(Cl)c(Cl)c1)N1CCC(CCc2ccccc2)N2C[C@H](N)C[C@H]2C1=O` (stereo partly drawn) [Example 88, (4R)-2-(diethylamino)-2-oxoethyl 4-((8R,9aS)-8-amino-1-oxo-5-phenethylhexahydro-1H-pyrrolo[1,2-a][1,4]diazepin-2(3H)-yl)-5-((3,4-dichlorobenzyl)amino)-5-oxopentanoate] stands less than 1000 nM; under `COc1ccc(CNC(=O)[C@@H](CC(C)C)N2CCC(CCc3ccccc3)N3C[C@H](N)C[C@H]3C2=O)cc1` (stereo partly shown) [Example 59], less than 1000 nM.

Molecule `NC(=O)CC[C@H](C(=O)N1Cc2cc(Cl)c(Cl)cc2C1)N1CCC(CCc2ccccc2)N2C[C@H](N)C[C@H]2C1=O` (stereo partly shown) [Example 20] returned an IC50 of 10000 to 100000 nM. Under `N#CCC[C@H](C(=O)NCc1ccc(Cl)c(Cl)c1F)N1CCC(CCc2ccccc2)N2C[C@H](N)C[C@H]2C1=O` (stereo partly shown) [Example 109] stands less than 1000 nM; under `COc1ccc(OCC2CCN([C@H](CCC(=O)O)C(=O)NCc3ccc(Cl)c(Cl)c3)C(=O)[C@@H]3C[C@@H](N)CN23)cc1` (stereo partly drawn) [Example 72, (4R)-4-((8R,9aS)-8-amino-5-((4-methoxyphenoxy)methyl)-1-oxohexahydro-1H-pyrrolo[1,2-a][1,4]diazepin-2(3H)-yl)-5-((3,4-dichlorobenzyl)amino)-5-oxopentanoic Acid], 1000 to 9990 nM. Under `N#CC[C@H](C(=O)N1CCc2cc(Cl)c(Cl)cc2C1)N1CCC(CCc2ccccc2)N2C[C@H](N)C[C@H]2C1=O` (stereo partly shown) [Example 66] stands 1000 to 9990 nM; under `CCOC(=O)CC[C@H](C(=O)NCc1ccc(Cl)c(Cl)c1OC)N1CCC(CCc2ccccc2)N2C[C@H](N)C[C@H]2C1=O` (stereo partly shown) [Example 102], less than 1000 nM.

The molecule `NC(=O)C[C@H](C(=O)NCc1ccc(Cl)c(Cl)c1)N1CCC(CCc2ccccc2)N2C[C@H](N)C[C@H]2C1=O` (stereo partly shown) [Example 23] displayed a 50% inhibitory concentration (IC50) of less than 1000 nM.

`N[C@@H]1C[C@H]2C(=O)N([C@H](CCC(=O)O)C(=O)NCc3ccc(Cl)c(Cl)c3)CCC(COc3ccc(F)cc3)N2C1` (stereo partly shown) [Example 75]: the IC50 was less than 1000 nM. The same measure for `CCOC(=O)CC[C@H](C(=O)N1CCC[C@H]1c1ccc(Cl)c(Cl)c1)N1CCC(CCc2ccccc2)N2C[C@H](N)C[C@H]2C1=O` (stereo partly shown) [Example 98]: less than 1000 nM.

For orientation: IC50 means the point on the concentration scale where inhibition reaches its midpoint. Low readings indicate greater potency, high ones weaker potency.
